Reference: US4220795A, “Cyclobutyl substituted derivatives of prostaglandin analogs” (Miles Laboratories, Inc., priority 1978, dated 1980)

Assays:
blood pressure = assay: Effects on Blood Pressure and Heart Rate in the Anesthetized Cat (Test D); type: in vivo; conditions: Felis catus, iv, i.v. 0.01 to 10.0 mcg/kg, scored on hypotension, read-out: Activity value, Test D: Normal Feline Blood Pressure and Heart Rate (ED50 mmHg)
Description: D. Evaluation of the Effects of Prostaglandin Analogs III on Blood Pressure and Heart Rate in the Anesthetized Cat
The acute effects of test compounds on blood pressure and heart rate were determined in cats of either sex anesthetized with a mixture of pentobarbital sodium (35 mg/kg, i.v.) and barbital sodium (100 mg/kg, i.v.). Cannulas were placed in the trachea to allow adequate spontaneous ventilation, in a femoral artery for blood pressure recording with a strain gage transducer, and in a saphenous vein for drug administration. Heart rate was recorded by means of a cardiotachometer driven by the R wave of the electrocardiogram. After a period of 10 min of stable recordings of blood pressure and heart rate, the test compound was administered intravenously at doses increasing from 0.01 to 10.0 mcg/kg, spaced one log and injected at 10 min intervals. All doses were injected in a volume of 0.1 ml/kg. Modifications of blood pressure and heart rate induced by the test compound were expressed both in absolute units (mmHg and beats/min) and as percent of values recorded immediately before administration of each dose. Biphasic responses were tabulated in the order in which they occur. The direction of the observed changes was also noted (+ for increase and - for decrease).
Activity of compounds in this test was judged only on the basis of the degree of hypotension observed. Thus, the ED50 mmHg (dose decreasing blood pressure by 50 mmHg) was calculated graphically and the compound scored according to the following scale: […]

femoral blood flow = assay: Effects on Femoral Blood Flow in the Dog (Test C); type: in vivo, dog (mongrel); conditions: anesthetized dog, intraarterial 0.001 to 10 mcg
Description: C. Evaluation of the Effects of Prostaglandin Analogs III on the Femoral Blood Flow in the Dog
The peripheral vasodilator or constrictor effects of test compounds were determined in mongrel dogs of either sex, weighing between 10 and 20 kg anesthestized intravenously with 35 mg/kg of sodium pentobarbital. An external iliac artery was dissected immediately above the femoral arch for a length of approximately 5 cm and a previously calibrated, non-connulating electromagnetic flowmeter sensor with a lumen between 2.5 and 3.5 mm was placed snugly around the vessel. Cannulas were placed in a branch of the artery arising distally to the location of the flowmeter sensor for intraarterial drug administrations, in the contralateral femoral artery for systemic blood pressure recordings and in the trachea for artificial respiration with room air. Femoral blood flow and systemic blood pressure were continuously recorded with an electromagnetic flowmeter and pressure transducer, respectively.
After an adequate control period, test compounds were injected intraarterially at one log-spaced doses ranging from 0.001 to 10 mcg., in a volume of 0.5 ml and at 5 to 10 min intervals. Maximum changes in bloodflow, as well as any variations in blood pressure, were tabulated for each dose in absolute values (ml/min and mmHg). The calculations were made taking as control values those existing immediately before administration of each dose. The direction of the observed change (+ for increase and - for decrease) was also noted. The dose changing bloodflow by 100 ml/min (ED100 ml/min) was calculated graphically and was used for scoring activity as follows: […]

rat uterus = assay: Effects on the Rat Uterus (Test F); conditions: for EC50: read-out: Activity value, Test F: Effects on Rat Uterus (ED50, response of 50% that of carbachol)
Description: F. Evaluation of the Effects of Prostaglandin Analogs III on the Rat Uterus
The uterine stimulant effect of test compounds is determined in segments of uterus obtained from rats (140-160 g) pretreated subcutaneously with 1 mg/kg of diethylstibesterol 18 hr before the experiment. The tissues are placed in 10 ml chambers filled with de-Jalon solution at 29° C. and bubbled with 95% O2 and 5% CO2, and prepared for isometric recording with force displacement transducers. Preparations are stretched to an initial tension of 1 g and are left undisturbed for 30 min, after which two responses to 1 mcg/ml of carbachol added to the bath at a 10 min interval, are obtained (the value of the second response is recorded). Responses to increasing concentrations of the test compound (0.001 to 10.0 mcg/ml with one log intervals) are then recorded every 10 min. Preparations are washed four times after each response. All doses of drugs are administered in a 0.1 ml volume. Since it has been observed that the magnitude of the second response to carbachol, which is approximately 10% greater than the first, is close to the maximal response of the tissue, such value is taken as a measure of the sensititity of the particular segment. Responses to each concentration of the test compound are expressed in terms of percentage of the second response to carbachol and the ED50 (dose producing a response of 50% that of carbachol) is calculated graphically. Activity is scored according to the following scale: […]

[1] = system: blood pressure (hypertensive rat); assay: Effects on Blood Pressure in the Hypertensive Rat (Test E); type: in vivo; set-up: key: 0: Not significant at any time interval; 1: Significant at one time interval; 2: Significant at two time intervals; 3: Significant at three time intervals; 4: Significant at all four intervals; conditions: 1 mg/kg intraperitoneal, 2, 4, 6 and 8 hr
Description: E. Evaluation of the Effects of Prostaglandin Analogs III on Blood Pressure in the Hypertensive Rat
The acute antihypertensive activity of test compounds is determined in rats made hypertensive by the procedure of Grollman (A. Proc. Soc. Exper. Biol. Med., 57:102, [1944]). Female rats weighing between 60 and 100 g are anesthetized with ether, the right kidney approached through a flank retroperitoneal incision, decapsulated and tied with a figure-of-eight ligature. The animals are left to recover and two weeks later are again anesthetized and the contralateral kidney removed. Four weeks after the second operation the rats are subjected to indirect blood pressure measurements and those showing systolic pressure values greater than 160 mmHg are selected for drug testing.
Blood pressure is measured in the tail with an inflatable occluding cuff placed at the base of the extremity and a pulse detector located distally. The cuff is inflated to approximately 300 mmHg and is slowly deflated until pulsations appear, indicating the level of systolic pressure; diastolic pressure is not recorded by this procedure. All measurements are carried out in unanesthetized, unsedated animals maintained in a warm environment during the recording procedure and for at least 6 hr before. In all cases, three pressure readings are obtained in succession and mean values are calculated thereof.
Experiments are carried out in groups of five hypertensive rats in which systolic pressure is determined immediately before and 2, 4, 6 and 8 hr after the intraperitoneal administration of the test compound at a dose of 1 mg/kg. Drugs are diluted from stock solutions with phosphate buffer (Lee et al., Prostaglandins 3:29 [1973]), so as to inject this quantity in a volume of 1 ml/kg. Changes from control blood pressure values are calculated for each interval both in mmHg and in per-cent, and evaluated for significance by means of Wilcoxon's signed rank test (Wilcoxon and Wilcox, Some rapid approximate statistical procedures, Lederle Laboratories, Pearl River [1964]).

[2] = rat uterus segments, 0.001 to 10.0 mcg/ml, 29° C.

SMILES	EC50 (rat uterus; [2]) [µg/mL]	ED (50 mmHg) (blood pressure) [mg/kg]	also measured
CCC1CC(C(O)/C=C/[C@H]2C=CC(=O)[C@@H]2CCCCCCC(=O)OC)C1 (some centres unmarked) [TR-4280, Methyl 15RS-hydroxy-16,18-methano-9-oxoprosta-10,13E-dien-1-oate]	> 10		
CCC1CC([C@H](O)/C=C/[C@H]2C=CC(=O)[C@@H]2CCCCCCCOC(C)=O)C1 (stereo partly drawn) [TR-4565, 1-Acetoxy-15S-hydroxy-16,18-methanoprosta-10,13E-dien-9-one]	> 10	> 0.0101	Activity value, Test C: Increase in Canidae Femoral Blood Flow (ED100 ml/min) (femoral blood flow): 1 (1.0.-10.0)
CCC1CC([C@H](O)/C=C/C2C(O)CC(O)C2CCCCCCCO)C1 (stereo partly drawn) [TR-4626, 16,18-Methanoprost-13E-en-1,9α,11α,15S-tetraol]			Activity value, Test F: Effects on Rat Uterus (ED50, response of 50% that of carbachol) (rat uterus; [2]): 0 (>10)
CCC1CC(C)([C@H](O)/C=C/[C@H]2[C@H](O)CC(=O)[C@@H]2CCCCCCC(=O)OC)C1 (stereo partly drawn) [TR-4681, Methyl 11α,15R-dihydroxy-16,18-methano-16-methyl-9-oxoprost-13E-en-1-oate]	> 10	0.00101 to 0.01	Activity value, Test C: Increase in Canidae Femoral Blood Flow (ED100 ml/min) (femoral blood flow): 2 (0.11-1.0)
COC(=O)CCCCCC[C@H]1C(=O)C=C[C@@H]1/C=C/[C@@H](O)C1(C)CCC1 [TR-4683, Methyl 16,19-cyclo-15R-hydroxy-16-methyl-20-nor-9-oxoprosta-10,13E-dien-1-oate]	> 10		
CCC1CC(C)([C@@H](O)/C=C/[C@H]2[C@H](O)CC(=O)[C@@H]2CCCCCCCO)C1 (stereo partly drawn) [TR-4689, 16,18-Methano-16-methyl-1,11α,15S-trihydroxyprost-13E-en-9-one]	> 10	> 0.0101	Activity value, Test C: Increase in Canidae Femoral Blood Flow (ED100 ml/min) (femoral blood flow): 0 (>10.0)
CCCCC1([C@H](O)/C=C/[C@H]2[C@H](O)CC(=O)[C@@H]2CCCCCCC(=O)OC)CCC1 [TR-4692, Methyl 11α,15R-dihydroxy-9-oxo-16,16-propanoprost-13E-en-1-oate]	> 10	0.00101 to 0.01	Activity value, Test E: Effects on Blood Pressure in Hypertensive Rat (blood pressure decrease) [1]: 0
CCC1CC(C)(C(O)/C=C/[C@H]2C=CC(=O)[C@@H]2CCCCCCC(=O)OC)C1 (stereo partly drawn) [TR-4694, Methyl 15R-hydroxy-16,18-methano-16-methyl-9-oxoprosta-10,13E-dien-1-oate]	> 10		
C[N+](C)(C)CCOC(N)=O [carbachol, reference compound]			magnitude of the second response greater than the first (rat uterus; carbachol 1 mcg/ml, rat uterus, 10 min interval): approximately 10%

Further lines, with some results ahead:

EC50 (rat uterus; [2]) [µg/mL]	SMILES	ED (50 mmHg) (blood pressure) [mg/kg]	also measured
> 10	CCC1CC([C@@H](O)/C=C/[C@H]2[C@H](O)CC(=O)[C@@H]2CCCCCCO)C1 (relative stereo) [TR-4675, (±)16,18-Methano-1-nor-2,11α,15R-trihydroxyprost-13E-en-9-one]	> 0.0101	Activity value, Test C: Increase in Canidae Femoral Blood Flow (ED100 ml/min) (femoral blood flow): 0 (>10.0)
> 10	CCC1CC([C@H](O)/C=C/[C@H]2[C@H](O)CC(=O)[C@@H]2CCCCCCO)C1 (relative stereo) [TR-4676, (±)16,18-Methano-1-nor-2,11α,15S-trihydroxyprost-13E-en-9-one]	> 0.0101	Activity value, Test E: Effects on Blood Pressure in Hypertensive Rat (blood pressure decrease) [1]: 0; Activity value, Test C: Increase in Canidae Femoral Blood Flow (ED100 ml/min) (femoral blood flow): 0 (>10.0)
> 10	CC1([C@@H](O)/C=C/[C@H]2[C@H](O)CC(=O)[C@@H]2CCCCCCCO)CCC1 [TR-4674, 16,19-Cyclo-16-methyl-20-nor-1,11α,15S-trihydroxyprost-13E-en-9-one]	> 0.0101	Activity value, Test E: Effects on Blood Pressure in Hypertensive Rat (blood pressure decrease) [1]: 0
> 10	COC(=O)CCCCCC[C@H]1C(=O)C[C@@H](O)[C@@H]1/C=C/[C@H](O)C1CC(CC2CCC2)C1 (stereo partly drawn) [TR-4796, Methyl 11α,15R-dihydroxy-16,18-methano-20,20-propano-9-oxoprost-13E-en-1-oate]		
> 10	COC(=O)CCCCCC[C@H]1C(=O)C[C@@H](O)[C@@H]1/C=C/[C@@H](O)C1CC(CC2CCC2)C1 (stereo partly drawn) [TR-4797, Methyl 11α,15S-dihydroxy-16,19-methano-20,20-propano-9-oxoprost-13E-en-1-oate]		
> 10	O=C1C[C@@H](O)[C@H](/C=C/[C@H](O)C2CC(CC3CCC3)C2)[C@H]1CCCCCCCO (stereo partly drawn) [TR-4832, 1,11α,15R-Trihydroxy-16,18-methano-20,20-propanoprost-13E-en-9-one]		
> 10	O=C1C[C@@H](O)[C@H](/C=C/[C@@H](O)C2CC(CC3CCC3)C2)[C@H]1CCCCCCCO (stereo partly drawn) [TR-4833, 1,11α,15S-Trihydroxy-16,18-methano-20,20-propanoprost-13E-en-9-one]		
> 10	O=C1C[C@@H](O)[C@H](/C=C/[C@@H](O)C2CC(C3CCC3)C2)[C@H]1CCCCCCCO (stereo partly drawn) [TR-4880, 1,11α,15S-Trihydroxy-16,18-methano-19,20-ethanoprost-13E-en-9-one]		
> 10	O=C1C[C@@H](O)[C@H](/C=C/[C@H](O)C2CC(C3CCC3)C2)[C@H]1CCCCCCCO (stereo partly drawn) [TR-4881, 1,11α,15R-Trihydroxy-16,18-methano-19,20-ethanoprost-13E-en-9-one]		
> 10	COC(=O)CCCCCC[C@H]1C(=O)C[C@@H](O)[C@@H]1/C=C/[C@H](O)C1CC(C2CCC2)C1 (stereo partly drawn) [TR-4882, Methyl 11α,15R-dihydroxy-16,18-methano-19,20-ethano-9-oxoprost-13E-en-1-oate]		
> 10	COC(=O)CCCCCC[C@H]1C(=O)C[C@@H](O)[C@@H]1/C=C/[C@@H](O)C1CC(C2CCC2)C1 (stereo partly drawn) [TR-4887, Methyl 11α,15S-dihydroxy-16,18-methano-19,20-ethano-9-oxoprost-13E-en-1-oate]		
